This is an account of results in US20090325964A1, “Piperazine Metabotropic Glutamate Receptor 5 (MGLUR5) Negative Allosteric Modulators For Anxiety/Depression” (Wyeth, priority 2008, published 2009).

SMILES strings stand for the structures.

For one assay, the target named is T1, rat mGluR5 receptor (Rattus norvegicus, UniProt P31424).
T1 construct: expressed in transfected cells; host or cells: HEK-293
T1 sequence (P31424 21-1203): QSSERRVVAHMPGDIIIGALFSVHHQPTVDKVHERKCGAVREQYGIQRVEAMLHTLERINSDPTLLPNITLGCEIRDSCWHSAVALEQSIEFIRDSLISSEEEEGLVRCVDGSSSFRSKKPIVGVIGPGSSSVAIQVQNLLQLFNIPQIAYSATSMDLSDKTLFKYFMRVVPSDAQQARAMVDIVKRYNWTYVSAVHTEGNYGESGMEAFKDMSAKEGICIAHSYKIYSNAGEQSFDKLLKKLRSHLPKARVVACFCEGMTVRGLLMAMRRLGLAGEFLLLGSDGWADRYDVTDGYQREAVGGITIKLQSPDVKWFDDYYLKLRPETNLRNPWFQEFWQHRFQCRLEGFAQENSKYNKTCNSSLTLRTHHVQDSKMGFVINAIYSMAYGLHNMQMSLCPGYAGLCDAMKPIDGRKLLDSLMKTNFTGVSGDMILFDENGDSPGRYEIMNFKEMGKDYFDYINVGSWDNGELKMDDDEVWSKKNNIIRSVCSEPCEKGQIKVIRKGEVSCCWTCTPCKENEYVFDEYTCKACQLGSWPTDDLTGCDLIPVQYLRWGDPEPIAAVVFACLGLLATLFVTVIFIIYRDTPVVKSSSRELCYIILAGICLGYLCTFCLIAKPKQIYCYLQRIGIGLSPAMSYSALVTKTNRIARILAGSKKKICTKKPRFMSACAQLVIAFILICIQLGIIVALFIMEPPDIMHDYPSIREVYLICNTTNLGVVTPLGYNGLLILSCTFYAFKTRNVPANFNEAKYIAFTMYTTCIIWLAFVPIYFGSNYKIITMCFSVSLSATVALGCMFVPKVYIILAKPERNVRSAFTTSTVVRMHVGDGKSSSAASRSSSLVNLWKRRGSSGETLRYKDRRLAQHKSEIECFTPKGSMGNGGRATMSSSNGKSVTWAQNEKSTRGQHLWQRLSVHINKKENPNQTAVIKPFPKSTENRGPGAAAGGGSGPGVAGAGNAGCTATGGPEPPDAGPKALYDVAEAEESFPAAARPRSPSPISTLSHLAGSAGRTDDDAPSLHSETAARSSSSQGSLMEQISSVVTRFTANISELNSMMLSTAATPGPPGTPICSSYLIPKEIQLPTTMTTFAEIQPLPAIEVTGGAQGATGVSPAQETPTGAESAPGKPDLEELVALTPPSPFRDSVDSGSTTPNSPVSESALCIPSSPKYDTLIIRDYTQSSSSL
Description: [3H]-MPEP displacement binding assay, HEK-293 cell membranes expressing rat mGluR5. The settings on record: @ 10 μM compound; Biological Activity, Table 2A. In short, it runs like this:
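Membranes from HEK-293 cells expressing rat mGluR5 (12-25 μg protein), incubated 60 min at room temperature with 4 nM [3H]-MPEP in 50 mM Tris pH 7.5, then filtered. Nonspecific binding defined with 10 μM MPEP.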
Take `O=C(c1cccc(C#Cc2ccccn2)c1)N1CCN(c2ncccc2C(F)(F)F)CC1` [Compound 146, 1-[3-(pyridin-2-ylethynyl)benzoyl]-4-[3-(trifluoromethyl)pyridin-2-yl]piperzine]: the “PCT INHIB (%) @ 10 μM” value stood at 48%.

Staying with this assay, now noted: @ 10 μM compound; Biological Activity, Table 2A; read-out: PCT INHIB (%) @ 10 μM.
As for `O=C(c1ccnc(C#Cc2ccccc2)c1)N1CCN(c2ccc(C(F)(F)F)cn2)CC1` [Compound 123, 1-[2-(phenylethynyl)isonicotinoyl]-4-[5-(trifluoromethyl)pyridin-2-yl]piperazine], the inhibition at 10 µM came out at 0%.

Take `Cc1ccnc(N2CCN(C(=O)c3ccnc(C#Cc4ccccc4)c3)CC2)c1` [Compound 124, 1-(4-methylpyridin-2-yl)-4-[2-(phenylethynyl)isonicotinoyl]piperazine]: the inhibition at 10 µM came out at 84%.

For `Cc1cccc(N2CCN(C(=O)c3ccnc(C#Cc4ccccc4)c3)CC2)n1` [Compound 125, 1-(6-methylpyridin-2-yl)-4-[2-(phenylethynyl)isonicotinoyl]piperazine], the inhibition at 10 µM stood at 30%.

For `O=C(c1ccnc(C#Cc2ccccc2)c1)N1CCN(c2cccc(C(F)(F)F)n2)CC1` [Compound 126, 1-[2-(phenylethynyl)isonicotinoyl]-4-[6-(trifluoromethyl)pyridin-2-yl]piperazine], the inhibition at 10 µM came out at 54%.

As to `O=C(c1ccnc(C#Cc2ccccc2)c1)N1CCN(c2cnccn2)CC1` [Compound 127, 2-{4-[2-(phenylethynyl)isonicotinoyl]piperazin-1-yl}pyrazine], the inhibition at 10 µM was found to be 36%.

For the compound `N#Cc1ccc(N2CCN(C(=O)c3cccc(C#Cc4ccccc4)c3)CC2)nc1` [Compound 128, 6-{4-[3-(phenylethynyl)benzoyl]piperazin-1-yl}nicotinonitrile], the inhibition at 10 µM came out at 48%.

`O=C(c1cccc(C#Cc2ccccc2)c1)N1CCN(c2ncccc2C(F)(F)F)CC1` [Compound 129, 1-[3-(phenylethynyl)benzoyl]-4-[3-(trifluoromethyl)pyridin-2-yl]piperazine]: the inhibition at 10 µM was found to be 45%.

As to `O=C(c1cncc(C#Cc2ccccc2)c1)N1CCN(c2ncccn2)CC1` [Compound 130, 2-(4-{[5-(phenylethynyl)pyridin-3-yl]carbonyl}piperazin-1-yl)pyrimidine], the inhibition at 10 µM is 47%.

Regarding `N#Cc1ccc(N2CCN(C(=O)c3cncc(C#Cc4ccccc4)c3)CC2)nc1` [Compound 131, 6-(4-{[5-(phenylethynyl)pyridin-3-yl]carbonyl}piperazin-1-yl)nicotinonitrile], the inhibition at 10 µM stood at 0%.

As for `O=C(c1cncc(C#Cc2ccccc2)c1)N1CCN(c2ccc(C(F)(F)F)cn2)CC1` [Compound 132, 1-{[5-(phenylethynyl)pyridin-3-yl]carbonyl}-4-[5-(trifluoromethyl)pyridin-2-yl]piperazine], the inhibition at 10 µM is 0%.

Regarding `Cc1ccnc(N2CCN(C(=O)c3cncc(C#Cc4ccccc4)c3)CC2)c1` [Compound 133, 1-(4-methylpyridin-2-yl)-4-{[5-(phenylethynyl)pyridin-3-yl]carbonyl}piperazine], the inhibition at 10 µM is 52%.

On to `O=C(c1cncc(C#Cc2ccccc2)c1)N1CCN(c2ncccc2C(F)(F)F)CC1` [Compound 134, 1-{[5-(phenylethynyl)pyridin-3-yl]carbonyl}-4-[3-(trifluoromethyl)pyridin-2-yl]piperazine], for which the inhibition at 10 µM was determined as 0%.

`N#Cc1cccnc1N1CCN(C(=O)c2cncc(C#Cc3ccccc3)c2)CC1` [Compound 135, 2-(4-{[5-(phenylethynyl)pyridin-3-yl]carbonyl}piperazin-1-yl)nicotinonitrile]: the inhibition at 10 µM is 28%.

Regarding `Cc1cc(C)nc(N2CCN(C(=O)c3cncc(C#Cc4ccccc4)c3)CC2)n1` [Compound 136, 4,6-dimethyl-2-(4-{[5-(phenylethynyl)pyridin-3-yl]carbonyl}piperazin-1-yl)pyrimidine], the inhibition at 10 µM was determined as 0%.

For `O=C(c1cncc(C#Cc2ccccc2)c1)N1CCN(c2cnccn2)CC1` [Compound 137, 2-(4-{[5-(phenylethynyl)pyridin-3-yl]carbonyl}piperazin-1-yl)pyrazine], the inhibition at 10 µM amounted to 32%.

For the compound `O=C(c1cncc(C#Cc2ccccc2)c1)N1CCN(c2ccncc2)CC1` [Compound 138, 1-{[5-(phenylethynyl)pyridin-3-yl]carbonyl}-4-pyridin-4-ylpiperazine], the inhibition at 10 µM came to 0%.

For `N#Cc1cccnc1N1CCN(C(=O)c2ccnc(C#Cc3ccccc3)c2)CC1` [Compound 139, 2-{4-[2-(phenylethynyl)isonicotinoyl]piperazin-1-yl}nicotinonitrile], the inhibition at 10 µM was found to be 40%.

Consider `Cc1cc(C)nc(N2CCN(C(=O)c3ccnc(C#Cc4ccccc4)c3)CC2)n1` [Compound 140, 4,6-dimethyl-2-{4-[2-(phenylethynyl)isonicotinoyl]piperazin-1-yl}pyrimidine], for which the inhibition at 10 µM was 37%.

For `N#Cc1cccnc1N1CCN(C(=O)c2cccc(C#Cc3ccccc3)c2)CC1` [Compound 141, 2-{4-[3-(phenylethynyl)benzoyl]piperazin-1-yl}nicotinonitrile], the inhibition at 10 µM is 78%.

`O=C(c1cccc(C#Cc2ccccc2)c1)N1CCN(c2ccncc2)CC1` [Compound 142, 1-[3-(phenylethynyl)benzoyl]-4-pyridin-4-ylpiperazine]: the inhibition at 10 µM was 53%.

With `Cc1cccc(N2CCN(C(=O)c3cncc(C#Cc4ccccc4)c3)CC2)n1` [Compound 143, 1-(6-methylpyridin-2-yl)-4-{(5-(phenylethynyl)pyridin-3-yl]carbonyl}piperazine], the inhibition at 10 µM turned out to be 49%.

For the compound `O=C(c1ccnc(C#Cc2ccccc2)c1)N1CCN(c2ccncc2)CC1` [Compound 144, 1-[2-(phenylethynyl)isonicotinoyl]-4-pyridin-4-ylpiperazine], the inhibition at 10 µM came to 10%.

For the compound `COc1ccc(C(=O)N2CCN(c3ccncc3)CC2)cc1C#Cc1ccccc1` [Compound 145, 1-[4-methoxy-3-(phenylethynyl)benzoyl]-4-pyridin-4-ylpiperazine], the inhibition at 10 µM stood at 91%.

On to `Cc1cccc(N2CCN(C(=O)c3cccc(C#Cc4ccccn4)c3)CC2)n1` [Compound 147, 1-(6-methylpyridin-2-yl)-4-[3-(pyridin-2-ylethynyl)benzoyl]piperazine], for which the inhibition at 10 µM came out at 80%.

In the case of `N#Cc1cccnc1N1CCN(C(=O)c2cccc(C#Cc3ccccn3)c2)CC1` [Compound 148], the inhibition at 10 µM came out at 74%.

Turning to `O=C(c1cccc(C#Cc2ccccn2)c1)N1CCN(c2ncc(C(F)(F)F)cc2Cl)CC1` [Compound 149, 1-[3-chloro-5-(trifluoromethyl)pyridin-2-yl]-4-[3-(pyridin-2-ylethynyl)benzoyl]piperazine], the inhibition at 10 µM turned out to be 72%.

Still in this assay, the particulars now being: Biological Activity, Table 2A; read-out: Median Ki.
By Ki is commonly meant the equilibrium dissociation constant of an inhibitor or competing ligand from its target. For the compound `Cc1ccnc(N2CCN(C(=O)c3ccnc(C#Cc4ccccc4)c3)CC2)c1` [Compound 124, 1-(4-methylpyridin-2-yl)-4-[2-(phenylethynyl)isonicotinoyl]piperazine], the Ki is 0.338 µM.

In the case of `Cc1ccnc(N2CCN(C(=O)c3cncc(C#Cc4ccccc4)c3)CC2)c1` [Compound 133, 1-(4-methylpyridin-2-yl)-4-{[5-(phenylethynyl)pyridin-3-yl]carbonyl}piperazine], the Ki is 0.651 µM.

With `N#Cc1cccnc1N1CCN(C(=O)c2cccc(C#Cc3ccccc3)c2)CC1` [Compound 141, 2-{4-[3-(phenylethynyl)benzoyl]piperazin-1-yl}nicotinonitrile], the Ki is 1.09 µM.

Consider `COc1ccc(C(=O)N2CCN(c3ccncc3)CC2)cc1C#Cc1ccccc1` [Compound 145, 1-[4-methoxy-3-(phenylethynyl)benzoyl]-4-pyridin-4-ylpiperazine], for which the Ki is 1.3 µM.

For the compound `Cc1cccc(N2CCN(C(=O)c3cccc(C#Cc4ccccn4)c3)CC2)n1` [Compound 147, 1-(6-methylpyridin-2-yl)-4-[3-(pyridin-2-ylethynyl)benzoyl]piperazine], the Ki worked out at 3.02 µM.

On to `N#Cc1cccnc1N1CCN(C(=O)c2cccc(C#Cc3ccccn3)c2)CC1` [Compound 148], for which the Ki is 1.63 µM.

Take `O=C(c1cccc(C#Cc2ccccn2)c1)N1CCN(c2ncc(C(F)(F)F)cc2Cl)CC1` [Compound 149, 1-[3-chloro-5-(trifluoromethyl)pyridin-2-yl]-4-[3-(pyridin-2-ylethynyl)benzoyl]piperazine]: the Ki was 2.76 µM.

Still in this assay, the particulars now being: single point, @ 10 μM compound; Table 3A; read-out: PCT INHIB (%) @ 10 μM.
With `Cc1cccc(COc2cccc(C(=O)N3CCN(c4ccccn4)CC3)c2)c1` [Compound 150, 1-{3-[(3-methylbenzyl)oxy]benzoyl}-4-pyridin-2-ylpiperazine], the inhibition at 10 µM amounted to 0%.

As for `COc1ccc(C(=O)N2CCN(c3ccccn3)CC2)cc1OCc1cccc(C)c1` [Compound 151, 1-{4-methoxy-3-[(3-methylbenzyl)oxy]benzoyl}-4-pyridin-2-ylpiperazine], the inhibition at 10 µM is 0%.

Consider `O=C(c1cccc(OCc2ccccc2)c1)N1CCN(c2ccccn2)CC1` [Compound 152, 1-[3-(benzyloxy)benzoyl]-4-pyridin-2-ylpiperazine], for which the inhibition at 10 µM turned out to be 0%.

`O=C(c1cccc(OCc2cccc(Br)c2)c1)N1CCN(c2ccccn2)CC1` [Compound 153, 1-{3-[(3-bromobenzyl)oxy]benzoyl}-4-pyridin-2-ylpiperazine]: the inhibition at 10 µM was 23%.

On to `O=C(c1cccc(OCc2cccc(Cl)c2)c1)N1CCN(c2ccccn2)CC1` [Compound 154, 1-{3-[(3-chlorobenzyl)oxy]benzoyl}-4-pyridin-2-ylpiperazine], for which the inhibition at 10 µM worked out at 36%.

With `COc1cccc(COc2cccc(C(=O)N3CCN(c4ccccn4)CC3)c2)c1` [Compound 155, 1-{3-[(3-methoxybenzyl)oxy]benzoyl}-4-pyridin-2-ylpiperazine], the inhibition at 10 µM worked out at 0%.

As to `N#Cc1cccc(COc2cccc(C(=O)N3CCN(c4ccccn4)CC3)c2)c1` [Compound 156, 3-({3-[(4-pyridin-2-ylpiperazin-1-yl)carbonyl]phenoxy}methyl)benzonitrile], the inhibition at 10 µM is 0%.

In the case of `O=C(c1cccc(OCc2cccc(F)c2)c1)N1CCN(c2ccccn2)CC1` [Compound 157, 1-{3-[(3-fluorobenzyl)oxy]benzoyl}-4-pyridin-2-ylpiperazine], the inhibition at 10 µM worked out at 18%.

As for `COc1ccc(C(=O)N2CCN(c3ccccn3)CC2)cc1OCc1ccccc1` [Compound 158, 1-[3-(benzyloxy)-4-methoxybenzoyl]-4-pyridin-2-ylpiperazine], the inhibition at 10 µM is 0%.

As to `COc1ccc(C(=O)N2CCN(c3ccccn3)CC2)cc1OCc1cccc(Br)c1` [Compound 159, 1-{3-[(3-bromobenzyl)oxy]-4-methoxybenzoyl}-4-pyridin-2-ylpiperazine], the inhibition at 10 µM is 26%.

In the case of `COc1ccc(C(=O)N2CCN(c3ccccn3)CC2)cc1OCc1cccc(Cl)c1` [Compound 160, 1-{3-[(3-chlorobenzyl)oxy]-4-methoxybenzoyl}-4-pyridin-2-ylpiperazine], the inhibition at 10 µM was determined as 11%.

With `COc1cccc(COc2cc(C(=O)N3CCN(c4ccccn4)CC3)ccc2OC)c1` [Compound 161, 1-{4-methoxy-3-[(3-methoxybenzyl)oxy]benzoyl}-4-pyridin-2-ylpiperazine], the inhibition at 10 µM is 0%.
